Results as given in patent US20100009017A1, “Anticancer Methods Using Extracts of Anemarrhena asphodeloides Bunge” (BIONOVO, INC., priority 2008, published 2010).

Assays:
Format in all cases: cell-based
[1] = test system: SREBP2; experiment: SREBP2 activation in BT474 cells (FIG. 4B, FIG. 7); conditions: Timosaponin A3 5 μM, BN108 0.5 mg/mL
Experimental: FIG. 4. […] B. SREBP2 is activated by BN108 in both cell lines. Activated AKT was detected using antibody to phosphoserine 473 (Phospho-AKT) that is phosphorylated only in active kinase.
(§1) FIG. 7. Purified Timosaponin A3 and BN108 extract have similar effects on phosphorylation of eIF2a and on activation of SREBP2 as well as expression on SREBP2 target gene IDI1. BT474 cells were treated with TspA3 (5 μM) or BN108 (0.5 mg/ml).
In FIG. 4B, it can be seen that SREBP2 is activeated by BN108 in both the cancer cells (BT474) and the non-cancerous cells (MCF10A).
Both BN108 and Timosaponin A3 induce the pro-apoptotic gene REDD1 in prostate cancer cells.

[2] = test system: MCF10A cells; experiment: Cholesterol content of cell extracts (FIG. 8); conditions: normal (MCF10A) breast cells, through the first 8 hours after treatment
Experimental: (§2) FIG. 8. Purified Timosaponin A3 and BN108 extract have similar effects on cholesterol synthesis on breast cancer cells MM23 and normal MCF10A cells. Cells were treated with either BN108 or TspA3 for indicated times, and cell extracts were analyzed for cholesterol content, which was normalized to the protein content.
(§3) BN108 and Timosaponin A3 had similar effects on cholesterol (CHL) synthesis in cancerous and normal cells.

[3] = test system: MM23 breast cancer cells; experiment: Cholesterol content of cell extracts (FIG. 8); conditions: cancerous (MM23) breast cells
Experimental: as §2, §3

[4] = test system: BT474 cells; experiment: FACScan propidium iodide / Annexin V viability and apoptosis (FIG. 9, table); conditions: for cells surviving: BT474, 24 hours; for % Difference from control: control = DMSO
Experimental: FIG. 9. […] BT474 cells were treated for 24 hours, and percent of live cells was analyzed on FACScan based on permeability of dead cells for propidium iodide and binding of Annexin V.
The cytotoxic effects of BN108 and Timosaponin A3 are attenuated by cholesterol (CHL) and the caspase 4 inhibitor LEVD. […] Treatment of BT474 cells with […] cholesterol protected the cells from the effects of Timosaponin A3 and BN108, with about 80% of the cells surviving 24 hours in the presence of cholesterol (CHL).

[5] = test system: cancer cells; experiment: Induction of apoptosis in vitro
[6] = test system: IDI1; experiment: Expression of SREBP2 target gene IDI1 in BT474 cells (FIG. 7); conditions: Timosaponin A3 5 μM, BN108 0.5 mg/mL
Experimental: as §1, with “mg/ml). Both BN108 and Timosaponin A3 induce the pro-apoptotic gene REDD1 in prostate cancer cells.” for “mg/ml).”

[7] = test system: REDD1; experiment: REDD1 induction in Du145 cells (FIG. 6); conditions: Du145 prostate cancer cells; BN108 0.5 mg/mL, Timosaponin A3 7.5 μM
Experimental: FIG. 6. Pro-apoptotic gene REDD1 is induced in prostate cancer cell line Du145 by treatment with BN108 (0.5 mg/ml) and Timosaponin A3 (7.5 μM). Both BN108 and Timosaponin A3 induce the pro-apoptotic gene REDD1 in prostate cancer cells.

[8] = test system: eIF2a; experiment: Phosphorylation of eIF2a in BT474 cells (FIG. 7); conditions: Timosaponin A3 5 μM, BN108 0.5 mg/mL
Experimental: as §1, with “mg/ml). Both BN108 and Timosaponin A3 induce the pro-apoptotic gene REDD1 in prostate cancer cells.” for “mg/ml).”

[9] = test system: non-cancerous cells; experiment: Induction of apoptosis in vitro
[10] = test system: BT474 cells; experiment: Cell death in BT474 cells (FIG. 5, FIG. 15); conditions: for induction of cell death: BT474, 24 hr, BN108 0.5 mg/mL, Timosaponin A3 4 μg/mL, Timosaponin B2 50 μg/mL, lamarinase-treated Timosaponin B2 4 μg/mL
Experimental: FIG. 5. Effect of Timosaponins A3 and B2 on viability of breast cancer (BT474) and normal epithelial cells (MCF10A). Cells were treated with BN108 at 0.5 mg/ml, Timosaponin A3 at 4 μg/ml, or Timosaponin B2 at 50 μg/ml, inactivated lamarinase alone or lamarinase-treated B2 at 4 μg/ml for 24 hours.
FIG. 15. Conversion of Timosaponin B2 to Timosaponin A3 by lamarinase was confirmed by time of flight mass spectrometry (TOF MS). Disappearance of Timosaponin B2 and appearance of Timosaponin A3 results in an increase in cell death from 16% in the presence of inactivated lamarinase and Timosaponin B2 to 53% in the presence of activated lamarinase and Timosaponin B2.
The effect of Timosaponins A3 and B2 on the viability of breast cancer cells and normal epithelial cells was tested by treating cells with either 0.5 mg/mL BN108, 4 μg/mL Timosaponin A3, 50 μg/mL Timosaponin B2, inactivated lamarinase alone or lamarinase-treated Timosaponin B2 (4 μg/mL) for 24 hr. […] The difference in activity between Timosaponin A3 and lamarinase treated Timosaponin B2 is, on a molar basis, probably negligible, given that the quotient of the molecular weights of Timosaponin B2 (920 Da) and Timosaponin A3 (740 Da) is roughly equivalent to the ratio of the % dead cells in the Timosaponin A3 and the lamarinase-treated Timosaponin B2. Thus, it can be inferred that nearly all the Timosaponin B2 is converted into Timosaponin A3, and is active to induced apoptosis, in the presence of lamarinase.

Question: `CC1CCC2(OC1)OC1CC3C4CCC5CC(OC6OC(CO)C(O)C(O)C6OC6OC(CO)C(O)C(O)C6O)CC[C@]5(C)C4CC[C@]3(C)[C@H]1[C@@H]2C` (stereo partly shown) [Timosaponin A3] was tested. Which “expression of SREBP2” value [1] did it give?
Answer: Its value is “increase expression of SREBP2”.

Question: What about the cholesterol synthesis [2] of the same compound?
Answer: Its cholesterol synthesis is “reduce cholesterol synthesis”.

Question: What about the cholesterol synthesis [3] of the same compound?
Answer: Its cholesterol synthesis is “increase cholesterol synthesis slightly”.

Question: And the “% Total apoptotic” value [4]?
Answer: Its value is 68%.

Question: What about the “% early apoptotic” value [4] of the same compound?
Answer: The value was 35%.

Question: And the “% late apoptotic” value [4]?
Answer: Its value is 33%.

Question: And the cells surviving [4]?
Answer: Its cells surviving is 40%.

Question: And the cells surviving ([4]; with 250 mM cholesterol (CHL))?
Answer: Its cells surviving is “about 80%”.

Question: What about the “% Difference from control” value [4] of the same compound?
Answer: Its value is 57%.

Question: What about the induction of apoptosis [5] of the same compound?
Answer: Its induction of apoptosis is “induces of apoptosis”.

Question: What about the “expression of IDI1” value [6] of the same compound?
Answer: The value was “increase expression of IDI1”.

Question: What about the REDD1 gene induction [7] of the same compound?
Answer: Its REDD1 gene induction is “induced”.

Question: And the “phosphorylation of eIF2a” value [8]?
Answer: Its value is “increase phosphorylation of elF2a”.

Question: And the induction of apoptosis [9]?
Answer: The induction of apoptosis was “does not induce apoptosis”.

Question: What about the “induction of cell death” value [10] of the same compound?
Answer: Its value is “induced cell death”.

Question: `C[C@@H](CCC1(O)O[C@H]2C[C@H]3[C@@H]4CC[C@@H]5C[C@@H](O[C@@H]6O[C@H](CO)[C@H](O)[C@H](O)[C@H]6O[C@@H]6O[C@H](CO)[C@@H](O)[C@H](O)[C@H]6O)CC[C@]5(C)[C@H]4CC[C@]3(C)[C@H]2[C@@H]1C)CO[C@@H]1O[C@H](CO)[C@@H](O)[C@H](O)[C@H]1O` (stereo partly shown) [Timosaponin B2] was tested. Which “% Total apoptotic” value [4] did it give?
Answer: The value was 12%.

Question: And the “% early apoptotic” value [4]?
Answer: The value was 7%.

Question: What about the “% late apoptotic” value [4] of the same compound?
Answer: The value was 5%.

Question: And the “% Difference from control” value [4]?
Answer: Its value is 1%.

Question: What about the induction of apoptosis [5] of the same compound?
Answer: The induction of apoptosis was “does not induce apoptosis”.

Question: And the “induction of cell death” value [10]?
Answer: Its value is “did not induce cell death”.

Question: And the cell death ([10]; in the presence of inactivated lamarinase (FIG. 15))?
Answer: Its cell death is 16%.
